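Exposure lasted 48 hours, with cells grown in 96-well plates and compounds tested at five concentrations. At the GI50, growth is halved. TGI is the concentration that stops growth completely.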
Experiments:
Test in all cases: NCI tumour cell line growth inhibition, 48 h
OVCAR-5 ovarian = test system: OVCAR-5 ovarian
SF-539 CNS = test system: SF-539 CNS
SF-295 CNS = test system: SF-295 CNS
SNB-75 CNS = test system: SNB-75 CNS
SN12C renal = test system: SN12C renal
UACC-62 melanoma = test system: UACC-62 melanoma
KM12 colon = test system: KM12 colon
CAKI-1 renal = test system: CAKI-1 renal
OVCAR-4 ovarian = test system: OVCAR-4 ovarian
HCC-2998 colon = test system: HCC-2998 colon
OVCAR-8 ovarian = test system: OVCAR-8 ovarian
HOP-62 NSCLC = test system: HOP-62 NSCLC
SNB-19 CNS = test system: SNB-19 CNS
HCT-116 colon = test system: HCT-116 colon
EKVX NSCLC = test system: EKVX NSCLC
NCI-H460 lung = test system: NCI-H460 lung
SK-MEL-28 melanoma = test system: SK-MEL-28 melanoma
M14 melanoma = test system: M14 melanoma
CCRF-CEM leukemia = test system: CCRF-CEM leukemia
MALME-3M melanoma = test system: MALME-3M melanoma
TK-10 renal = test system: TK-10 renal
LOX IMVI melanoma = test system: LOX IMVI melanoma
PC-3 prostate = test system: PC-3 prostate
ACHN renal = test system: ACHN renal
RXF 393 renal = test system: RXF 393 renal
SR leukemia = test system: SR leukemia
SW-620 colon = test system: SW-620 colon
T-47D breast = test system: T-47D breast
NCI-H23 lung = test system: NCI-H23 lung
NCI/ADR-RES ovarian = test system: NCI/ADR-RES ovarian
IGROV1 ovarian = test system: IGROV1 ovarian
SK-OV-3 ovarian = test system: SK-OV-3 ovarian
MDA-MB-435 = test system: MDA-MB-435
UACC-257 melanoma = test system: UACC-257 melanoma
MOLT-4 leukemia = test system: MOLT-4 leukemia
786-0 renal = test system: 786-0 renal
OVCAR-3 ovarian = test system: OVCAR-3 ovarian
A498 renal = test system: A498 renal
MCF7 breast = test system: MCF7 breast
BT-549 breast = test system: BT-549 breast
HL-60(TB) leukemia = test system: HL-60(TB) leukemia
NCI-H226 lung = test system: NCI-H226 lung
SF-268 CNS = test system: SF-268 CNS
U251 CNS = test system: U251 CNS
RPMI-8226 leukemia = test system: RPMI-8226 leukemia
COLO 205 colon = test system: COLO 205 colon
NCI-H522 lung = test system: NCI-H522 lung
SK-MEL-5 melanoma = test system: SK-MEL-5 melanoma
HOP-92 NSCLC = test system: HOP-92 NSCLC
A549 NSCLC = test system: A549 NSCLC
K-562 leukemia = test system: K-562 leukemia
SK-MEL-2 melanoma = test system: SK-MEL-2 melanoma
MDA-MB-231 breast = test system: MDA-MB-231 breast
HCT-15 colon = test system: HCT-15 colon
HT29 colon = test system: HT29 colon
DU-145 prostate = test system: DU-145 prostate
UO-31 renal = test system: UO-31 renal
HS 578T breast = test system: HS 578T breast

COc1ccc2[nH]c(C(=O)N3CCN(C(=O)OCc4ccc5c(Br)cc(Br)c(O)c5n4)CC3)cc2c1 was tested, and the GI50 (OVCAR-5 ovarian) was 603 nM, the TGI (OVCAR-5 ovarian) was 1980 nM and the GI50 (SF-539 CNS) was 926 nM. For the same compound, the TGI (SF-539 CNS) was 2250 nM, the GI50 (SF-295 CNS) was 1610 nM and the TGI (SF-295 CNS) was 3030 nM. It also gave a GI50 (SNB-75 CNS) of 735 nM, a TGI (SNB-75 CNS) of 2160 nM and a GI50 (SN12C renal) of 313 nM. It also gave a TGI (SN12C renal) of 1070 nM, a GI50 (UACC-62 melanoma) of 258 nM and a TGI (UACC-62 melanoma) of 749 nM. For the same compound, the GI50 (KM12 colon) was 1370 nM, the TGI (KM12 colon) was 2830 nM and the GI50 (CAKI-1 renal) was 244 nM. The TGI (CAKI-1 renal) was 749 nM, the GI50 (OVCAR-4 ovarian) was 302 nM and the TGI (OVCAR-4 ovarian) was 972 nM. It also gave a GI50 (HCC-2998 colon) of 898 nM, a TGI (HCC-2998 colon) of 2390 nM and a GI50 (OVCAR-8 ovarian) of 277 nM. The TGI (OVCAR-8 ovarian) was 857 nM, the GI50 (HOP-62 NSCLC) was 1590 nM and the TGI (HOP-62 NSCLC) was 3660 nM. It also gave a GI50 (SNB-19 CNS) of 1460 nM, a TGI (SNB-19 CNS) of 2830 nM and a GI50 (HCT-116 colon) of 178 nM. For the same compound, the TGI (HCT-116 colon) was 393 nM, the GI50 (EKVX NSCLC) was 1370 nM and the TGI (EKVX NSCLC) was 2930 nM. It also gave a GI50 (NCI-H460 lung) of 1360 nM, a TGI (NCI-H460 lung) of 3140 nM and a GI50 (SK-MEL-28 melanoma) of 448 nM. For the same compound, the TGI (SK-MEL-28 melanoma) was 1510 nM, the GI50 (M14 melanoma) was 262 nM and the TGI (M14 melanoma) was 753 nM. For the same compound, the GI50 (CCRF-CEM leukemia) was 238 nM, the TGI (CCRF-CEM leukemia) was 1630 nM and the GI50 (MALME-3M melanoma) was 1020 nM. It also gave a TGI (MALME-3M melanoma) of 2370 nM, a GI50 (TK-10 renal) of 306 nM and a TGI (TK-10 renal) of 1010 nM. The GI50 (LOX IMVI melanoma) was 172 nM, the TGI (LOX IMVI melanoma) was 334 nM and the GI50 (PC-3 prostate) was 442 nM. It also gave a TGI (PC-3 prostate) of 1500 nM, a GI50 (ACHN renal) of 170 nM and a TGI (ACHN renal) of 335 nM. For the same compound, the GI50 (RXF 393 renal) was 208 nM, the TGI (RXF 393 renal) was 575 nM and the GI50 (SR leukemia) was 243 nM. For the same compound, the TGI (SR leukemia) was 1230 nM, the GI50 (SW-620 colon) was 222 nM and the TGI (SW-620 colon) was 507 nM. It also gave a GI50 (T-47D breast) of 1350 nM, a TGI (T-47D breast) of 4460 nM and a GI50 (NCI-H23 lung) of 1480 nM. The TGI (NCI-H23 lung) was 3150 nM, the GI50 (NCI/ADR-RES ovarian) was 336 nM and the TGI (NCI/ADR-RES ovarian) was 1760 nM. For the same compound, the GI50 (IGROV1 ovarian) was 368 nM, the TGI (IGROV1 ovarian) was 1360 nM and the GI50 (SK-OV-3 ovarian) was 1870 nM. It also gave a TGI (SK-OV-3 ovarian) of 3390 nM, a GI50 (MDA-MB-435) of 258 nM and a TGI (MDA-MB-435) of 695 nM. The GI50 (UACC-257 melanoma) was 447 nM, the TGI (UACC-257 melanoma) was 1400 nM and the GI50 (MOLT-4 leukemia) was 298 nM. It also gave a TGI (MOLT-4 leukemia) of 966 nM, a GI50 (786-0 renal) of 270 nM and a TGI (786-0 renal) of 759 nM. For the same compound, the GI50 (OVCAR-3 ovarian) was 197 nM, the TGI (OVCAR-3 ovarian) was 427 nM and the GI50 (A498 renal) was 1580 nM. The TGI (A498 renal) was 2980 nM, the GI50 (MCF7 breast) was 262 nM and the TGI (MCF7 breast) was 1180 nM. The GI50 (BT-549 breast) was 213 nM, the TGI (BT-549 breast) was 585 nM and the GI50 (HL-60(TB) leukemia) was 318 nM. For the same compound, the TGI (HL-60(TB) leukemia) was 1140 nM, the GI50 (NCI-H226 lung) was 496 nM and the TGI (NCI-H226 lung) was 1050 nM. It also gave a GI50 (SF-268 CNS) of 1200 nM, a TGI (SF-268 CNS) of 2740 nM and a GI50 (U251 CNS) of 1290 nM. It also gave a TGI (U251 CNS) of 2590 nM, a GI50 (RPMI-8226 leukemia) of 243 nM and a TGI (RPMI-8226 leukemia) of 809 nM. It also gave a GI50 (COLO 205 colon) of 193 nM, a TGI (COLO 205 colon) of 426 nM and a GI50 (NCI-H522 lung) of 206 nM. For the same compound, the TGI (NCI-H522 lung) was 546 nM, the GI50 (SK-MEL-5 melanoma) was 620 nM and the TGI (SK-MEL-5 melanoma) was 1770 nM. For the same compound, the GI50 (HOP-92 NSCLC) was 178 nM, the TGI (HOP-92 NSCLC) was 860 nM and the GI50 (A549 NSCLC) was 1680 nM. For the same compound, the TGI (A549 NSCLC) was 3590 nM, the GI50 (K-562 leukemia) was 294 nM and the TGI (K-562 leukemia) was 978 nM. For the same compound, the GI50 (SK-MEL-2 melanoma) was 577 nM, the TGI (SK-MEL-2 melanoma) was 1550 nM and the GI50 (MDA-MB-231 breast) was 388 nM. The TGI (MDA-MB-231 breast) was 1390 nM, the GI50 (HCT-15 colon) was 219 nM and the TGI (HCT-15 colon) was 596 nM. For the same compound, the GI50 (HT29 colon) was 318 nM, the TGI (HT29 colon) was 1030 nM and the GI50 (DU-145 prostate) was 396 nM. For the same compound, the TGI (DU-145 prostate) was 1370 nM, the GI50 (UO-31 renal) was 153 nM and the TGI (UO-31 renal) was 323 nM. The GI50 (HS 578T breast) was 1050 nM and the TGI (HS 578T breast) was 4290 nM.
